Measured values: patent publication US20240398737A1, “FUNCTIONALIZED LONG-CHAIN HYDROCARBON MONO- AND DI-CARBOXYLIC ACIDS AND DERIVATIVES THEREOF, AND THEIR USE FOR THE PREVENTION OR TREATMENT OF DISEASE” (Espervita Therapeutics, Inc., priority 2021, published 2024)
Values joined by “and” are separate entries in the source; they are usually repeats but may differ in a detail not shown here. Identical values can stand only once.

System: hepatic de novo lipogenesis
Test: Hepatic de novo lipogenesis (14C-glucose) in a murine model of NASH
Type: in vivo, mouse
Conditions: for Hepatic de novo lipogenesis, Mean (DPM/gram liver tissue/hour): high fat/high fructose fed mice
Description: Experimental Protocol. FIG. 22 summarizes the study protocol. Mice were dosed daily for 7 days with a single dose of either Compound I-32 or Compound I-1 at a dose of 10 mg/kg, 30 mg/kg or 60 mg/kg. On the 8th day of the experiment mice receive final dose of Compound I-32 or Compound I-1, followed one hour later by an I.P. bolus of 14—C Glucose.
C57BL6J (8 weeks of age) were obtained for the Jackson Laboratory and fed a normal chow diet upon arrival. At ˜10 weeks of age, mice were given a diet containing high fat and high fructose (Rodent Diet with 40 kcal % Fat (Mostly Palm Oil), 20 kcal % fructose, and 0.02% cholesterol, obtained from Research Diets, Product Code: D19101102) and housed at thermoneutral conditions (26-29° C.). After 7-8 months the mice were divided into 7 groups and received a single daily dose via gavage of either vehicle (1.5% CMC and 0.2% Tween-20) or vehicle containing Compound I-32 or Compound I-1 at a concentration of 10 mg/kg, 30 mg/kg, or 60 mg/kg for 7 days. On the morning of day 8, animals received a final dose and after 1 hour ^14C-glucose (PerkinElmer) was administered at a concentration of 12 μCi per mouse in a volume of 0.1 ml in 0.9% saline I.P. One hour after ^14C-glucose was given, animals were anesthetized by I.P. injection of Ketamine/Xylazine (150 mg/12.4 mg/kg, respectively). Blood was drawn through cardiac puncture; the liver was removed, and a sample was from the left lobe and frozen in liquid nitrogen. Liver tissue was chipped on dry-ice and the weight of the chip weight recorded (30-50 mg of tissue). Liver tissue was homogenized in 1 ml of 2:1 chloroform: methanol using a bead homogenizer at 5000 rpm for 2×12 seconds. Samples were incubated with gentle shaking at 4° C. for 2 hours, vortexed for 2×12 seconds, and then centrifuge at 7000 rpm for 10 minutes at 4° C. The supernatant was transferred to a 1.5 ml Eppendorf and 200 μl of 0.9% saline was added. Samples were vortexed for 2×12 seconds and centrifuged at 3000 rpm for 10 minutes at 4° C. 200 μl of the lower organic phase was removed and added to 5 ml of scintillation fluid. The amount radioactivity in the sample was measured by scintillation counting. The number of disintegrations per minute (DPM) were determined over a 5-minute period and normalized to the amount of liver tissue. 5-10 μl of plasma obtained at termination was also counted and lipid/gram tissue counts were normalized to plasma counts. Statistical comparisons were carried out using a one-way ANOVA followed by Dunnett's post hoc test using GraphPad Prism 8 software. A p-value of less than or equal to 0.05 was used as the criterion of significance.

[1] = 10 mg/kg daily oral gavage for 7 days
[2] = 30 mg/kg daily oral gavage for 7 days
[3] = 60 mg/kg daily oral gavage for 7 days

Compound | Hepatic de novo lipogenesis, Mean (DPM/gram liver tissue/hour) [1] | Hepatic de novo lipogenesis, % change from vehicle control (inhibition) [2] | Hepatic de novo lipogenesis, Mean (DPM/gram liver tissue/hour) [2] | Hepatic de novo lipogenesis, % change from vehicle control (inhibition) [3] | Hepatic de novo lipogenesis, Mean (DPM/gram liver tissue/hour) [3] | Hepatic de novo lipogenesis, % change from vehicle control (inhibition) [1]
CC(C)(CCCCc1ccc(CCCCC(C)(C)C(=O)O)cc1)C(=O)O [Compound I-1, 6-[4-(5-carboxy-5-methylhexyl)-phenyl]-2,2-dimethylhexanoic acid] | 81.25 DPM/gram liver tissue/hour | 56% and 55.65% | 43.83 DPM/gram liver tissue/hour | 69% and 68.96% | 30.68 DPM/gram liver tissue/hour | –
CC(C)(CCCCc1cccc(CCCCC(C)(C)C(=O)O)c1)C(=O)O [Compound I-32, 6-[3-(5-carboxy-5-methylhexyl)-phenyl]-2,2-dimethylhexanoic acid] | 50.61 DPM/gram liver tissue/hour | 37.42% | 61.85 DPM/gram liver tissue/hour | 53% and 52.90% | 46.55 DPM/gram liver tissue/hour | 48.79%
